These results are taken from US20220001083A1, “METHOD FOR THE MODIFICATION OF A DEVICE SURFACE BY GRAFTING A CD31-DERIVED PEPTIDE ONTO THE SURFACE OF SAID DEVICE” (BALT EXTRUSION, priority 2018, published 2022).

The test system of this data set is erythrocytes of human peripheral whole blood. Briefly: hemolysis assay. In kind it is cell-based. The following applies: photograph of the microplate before absorbance reading. How it is done:
The hemolysis assay is a required biocompatibility test for all blood-contacting devices. […] The hemolysis assay protocol we used was adapted from the one used by Bae and coworkers (Bae, I.-H., Park, I.-K., Park, D. S., Lee, H. and Jeong, M. H. 2012. Journal of Materials Science: Materials in Medicine 23 (5): 1259-1269.) as detailed below.
Coated and bare CoCr disks were placed in the wells of a 96-well plate and sterilized by a ten minute incubation in 70° ethanol. The disks were rinsed several times in water prior to a final wash in physiological saline solution (0.9% NaCl). […]
Disk-free wells were used as negative controls and 1% Triton X-100 (which causes the lysis of most erythrocytes through the dissolution of their plasma cell membrane) was added in blood-containing positive control wells. […] Absorbance was measured at 540 nm in a plate reader spectrophotometer (Infinite 200 PRO, TECAN). 540 nm corresponds to the absorbance peak of free hemoglobin, which is released by hemolysis from the erythrocytes. The value of the absorbance at 540 nm is therefore directly proportional to the extent of hemolysis caused by the sample disks in the experimental wells. […]
For each experiment, these observations were quantified by absorbance reading at 540 nm, and the measurements were normalized using the values obtained with the positive and negative controls, according to the following formula: […]

Regarding Triton X-100, the “macroscopic colour of platelet-poor plasma (hemolysis)” value is listed as “effective hemolysis”.
